This is an account of results in patent publication US7527967B2, “Recombinant baculovirus and virus-like particle” (priority 2003, dated 2009).

This test has as its system vAtEGp64S966 baculovirus (spike protein) entry into Vero E6 cells. The test is classed as cell-based.
Take `CN1CCN(CCCN2c3ccccc3Sc3ccc(Cl)cc32)CC1` [compound 0643, Prochlorperazine]: the “blocking the entry of baculovirus into Vero E6 cells” value (“blocking the entry” below) is reported as “very effective in blocking the entry”.

Regarding `CCC(=O)c1ccc2c(c1)N(CC(C)N(C)C)c1ccccc1S2` (stereo not drawn) [compound 0649, Propiomazine], the “blocking the entry” value was “very effective in blocking the entry”.

Take `CSc1ccc2c(c1)N(CCC1CCCCN1C)c1ccccc1S2` (stereo not drawn) [compound 2025, Thioridazine]: the “blocking the entry” value is given as “very effective in blocking the entry”.
